According to patent US8129381B2, “Caspase inhibitors and uses thereof” (Vertex Pharmaceuticals Incorporated, priority 2002, dated 2012):
pIC50: −log10 of the molar value.

Assays:
rat cortical neurons = experiment: Hypoxia-induced apoptosis of rat cortical neurons; assay type: cell-based, Wistar rat; settings: Cortical neurone, oxygen-depleted serum-free medium, Cell Death Detection ELISA (DNA fragmentation)
Experimental: Cortical neurons are dissociated from Wistar rat embryos (E17) by a modification of the procedure of Rogers et al., Brain Res. Bulletin, 44:131 (1998). Briefly, cerebral cortices are isolated aseptically from 15-20 Wistar rat embryos. A cell suspension is prepared by mincing the cerebral cortices and digesting them with papain. Cells are washed with ovomucoid enzyme inhibitor and DNaseI and plated onto Poly-D lysine coated plates in high glucose DMEM containing 10% heat-inactivated fetal calf serum, L-glutamine, penicillin and streptomycin. The yield of neurons is […] per embryo and they are 80-90% viable as assessed by Trypan blue exclusion.
The neurons are cultured in complete medium at 37° C. in a normal atmosphere for 48 hours prior to the hypoxia experiments. For hypoxia, the normal cell medium is replaced by oxygen-depleted serum-free medium. Cells are incubated in an atmosphere of 95% N2/5% CO2 for various lengths of time. Compounds are dissolved in DMSO at 100 mM then diluted in medium and added to the culture from time=0. The level of apoptosis is measured using a Cell Death Detection ELISA kit (Roche) which detects DNA fragmentation. Plates are read at 405 nm. Controls included cells cultured in aerobic conditions in serum-containing medium (+serum) and cells cultured in aerobic conditions in serum-deprived medium (−serum).
Compounds with an IC50>0.5 μM are listed as “A”. Compounds with an IC50 between 0.1 μM and 0.5 uM are listed as “B”. Compounds with an IC50<0.1 μM are listed as “C”.

[1] = tested on: IL-1β secretion from human whole blood; experiment: Inhibition of IL-1β secretion from whole blood; assay type: cell-based; settings: human whole blood diluted 1:2 in PBS, LPS 5 ng/ml, 18 hours, ELISA
Experimental: Human blood is freshly drawn from healthy donors and diluted 1:2 in PBS. To 500 μl of diluted blood […] of prediluted test compound in RPMI medium and […] LPS (5 ng/ml final concentration on the plate) are added (LPS, Serotype 0111:B4, Sigma L3012). After stimulation for 18 hours supernatants are collected and assayed for IL-1β levels using the appropriate ELISA kit (R&D systems).
Compounds with an IC50>10 μM are listed as “A”. Compounds with an IC50 between 1 μM and 10 uM are listed as “B”. Compounds with an IC50<1 μM are listed as “C”.

[2] = biological target: T1, recombinant, purified human Caspase-1 (Homo sapiens, UniProt P29466); experiment: Enzyme assay, caspase inhibition (fluorogenic substrate cleavage); assay type: biochemical; settings: second order rate constant of enzyme inactivation; substrate Acetyl-Tyr-Val-Ala-Asp-amino-4-methylcoumarin
T1 sequence (P29466 120-297 limits assumed): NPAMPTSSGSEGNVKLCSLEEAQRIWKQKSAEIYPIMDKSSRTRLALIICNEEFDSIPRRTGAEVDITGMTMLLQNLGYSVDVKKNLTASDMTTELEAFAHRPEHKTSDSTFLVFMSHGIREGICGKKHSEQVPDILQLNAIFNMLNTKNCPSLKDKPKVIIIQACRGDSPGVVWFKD
T1 sequence (P29466 317-404 limits assumed): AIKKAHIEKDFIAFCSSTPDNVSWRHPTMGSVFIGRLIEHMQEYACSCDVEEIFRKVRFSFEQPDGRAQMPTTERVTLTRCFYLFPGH
Source text: (§1) The assays for caspase inhibition are based on the cleavage of a fluorogenic substrate by recombinant, purified human Caspases −1, −3, −7 or −8. The assays are run in essentially the same way as those reported by Garcia-Calvo et al., J. Biol. Chem. 273, 32608-32613 (1998), using a substrate specific for each enzyme. The substrate for Caspase-1 is Acetyl-Tyr-Val-Ala-Asp-amino-4-methylcoumarin and the substrate for Caspases −3, −7 and −8 is Acetyl-Asp-Glu-Val-Asp-amino-4-methylcoumarin both as disclosed in Garcia-Calvo et al., J. Biol. Chem. 273, 32608-32613 (1998).
(§2) The observed rate of enzyme inactivation at a particular inhibitor concentration, kobs, is computed by direct fits of the data to the equation derived by Thornberry et al., Biochemistry, 33, […] (1994) using a nonlinear least-squares analysis computer program (PRISM 2.0; GraphPad software). To obtain the second order rate constant, kinact, kobs values are plotted against their respective inhibitor concentrations and kinact values are subsequently calculated by computerized linear regression.
(§3) Compounds with kinact(M^−1s^−1)>500000 are listed as “A”. Compounds with kinact(M^−1s^−1) between 100000 and 500000 are listed as “B”. Compounds with kinact(M^−1s^−1)<100000 are listed as “C”.

[3] = biological target: recombinant, purified human Caspase-8 (Homo sapiens, UniProt Q14790); experiment: as above; assay type: biochemical; settings: second order rate constant of enzyme inactivation; substrate Acetyl-Asp-Glu-Val-Asp-amino-4-methylcoumarin
recombinant, purified human Caspase-8, sequence (Q14790 217-374 limits assumed): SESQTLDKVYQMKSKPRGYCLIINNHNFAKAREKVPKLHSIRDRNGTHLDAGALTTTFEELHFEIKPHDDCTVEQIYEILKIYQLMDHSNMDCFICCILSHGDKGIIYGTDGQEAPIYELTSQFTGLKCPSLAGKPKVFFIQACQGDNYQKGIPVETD
recombinant, purified human Caspase-8, sequence (Q14790 385-479 limits assumed): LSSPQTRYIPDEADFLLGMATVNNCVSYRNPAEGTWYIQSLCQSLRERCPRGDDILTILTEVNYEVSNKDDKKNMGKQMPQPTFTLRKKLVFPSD
Source text: as §1, §2, §3

[4] = biological target: T2, recombinant, purified human Caspase-3 (Homo sapiens, UniProt P42574); experiment: as above; assay type: biochemical; settings: second order rate constant of enzyme inactivation; substrate Acetyl-Asp-Glu-Val-Asp-amino-4-methylcoumarin
T2 sequence (P42574 29-175 limits assumed): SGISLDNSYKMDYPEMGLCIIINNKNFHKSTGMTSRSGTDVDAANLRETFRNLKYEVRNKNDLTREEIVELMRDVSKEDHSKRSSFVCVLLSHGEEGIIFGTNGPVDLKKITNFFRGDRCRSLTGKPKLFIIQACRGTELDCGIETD
T2 sequence (P42574 176-277 limits assumed): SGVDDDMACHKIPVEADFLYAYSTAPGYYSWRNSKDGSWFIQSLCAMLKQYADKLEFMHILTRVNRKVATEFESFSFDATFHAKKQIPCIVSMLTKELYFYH
Source text: as §1, §2, §3

Compound	pIC50 [1]	pIC50 (rat cortical neurons)	kinact Caspase-1 [2]	kinact Caspase-8 [3]	kinact Caspase-3 [4]
CC[C@@H](C(=O)N[C@@H](CC(=O)O)C(=O)COc1c(F)c(F)cc(F)c1F)n1cnc2ccc(Cl)cc2c1=O [Compound 5, (S,S)-3-[2-(6-Chloro-4-oxo-4H-quinazolin-3-yl)-butyrylamino]-4-oxo-5-(2,3,5,6-tetrafluoro-phenoxy)pentanoic acid]	5.00 to 6.00	6.30 to 7.00	A (Compounds with kinact(M^−1s^−1)>500000 are listed as “A”)	B (Compounds with kinact(M^−1s^−1) between 100000 and 500000 are listed as “B”)	A (Compounds with kinact(M^−1s^−1)>500000 are listed as “A”)
CC[C@@H](C(=O)N[C@@H](CC(=O)O)C(=O)COc1c(F)cc(F)cc1F)n1cnc2ccccc2c1=O [Compound 7, (S,S)-4-Oxo-3-[2-(4-oxo-4H-quinazolin-3-yl)-butyrylamino]-5-(2,4,6-trifluoro-phenoxy)-pentanoic acid]	< 5.00	< 6.30	C (Compounds with kinact(M^−1s^−1)<100000 are listed as “C”)	C (Compounds with kinact(M^−1s^−1)<100000 are listed as “C”)	B (Compounds with kinact(M^−1s^−1) between 100000 and 500000 are listed as “B”)
CC[C@@H](C(=O)N[C@@H](CC(=O)O)C(=O)COc1c(F)c(F)cc(F)c1F)n1ccc2ccccc2c1=O [Compound 9, (S,S)-3-[2-(1-oxo-1H-isoquinolin-2-yl)-butyrylamino]-4-oxo-5-(2,3,5,6-tetrafluoro-phenoxy)-pentanoic acid]	< 5.00	6.30 to 7.00	B (Compounds with kinact(M^−1s^−1) between 100000 and 500000 are listed as “B”)	C (Compounds with kinact(M^−1s^−1)<100000 are listed as “C”)	B (Compounds with kinact(M^−1s^−1) between 100000 and 500000 are listed as “B”)
CC[C@@H](C(=O)N[C@@H](CC(=O)O)C(=O)COc1c(F)c(F)cc(F)c1F)n1cnc2ccccc2c1=O [Compound 6, (S,S)-4-Oxo-3-[2-(4-oxo-4H-quinazolin-3-yl)-butyrylamino]-5-(2,3,5,6-tetrafluoro-phenoxy)pentanoic acid]	5.00 to 6.00	6.30 to 7.00	B (Compounds with kinact(M^−1s^−1) between 100000 and 500000 are listed as “B”)	C (Compounds with kinact(M^−1s^−1)<100000 are listed as “C”)	A (Compounds with kinact(M^−1s^−1)>500000 are listed as “A”)
CC[C@@H](C(=O)NC(CC(=O)O)C(=O)CF)n1ccc2cc(C(F)(F)F)ccc2c1=O (stereo in doubt) [Compound 4, (S)-3-[2-(6-trifluoromethyl-1-oxo-1H-isoquinolin-2-yl)-butyrylamino]-5-fluoro-4-oxo-pentanoic acid]	5.00 to 6.00	< 6.30	B (Compounds with kinact(M^−1s^−1) between 100000 and 500000 are listed as “B”)	C (Compounds with kinact(M^−1s^−1)<100000 are listed as “C”)	B (Compounds with kinact(M^−1s^−1) between 100000 and 500000 are listed as “B”)
CC[C@@H](C(=O)NC(CC(=O)O)C(=O)CF)n1ccc2ccc(C(F)(F)F)cc2c1=O (mixture of isomers) [Compound 2, (S)-3-[2-(7-trifluoromethyl-1-oxo-1H-isoquinolin-2-yl)-butyrylamino]-5-fluoro-4-oxo-pentanoic acid]	> 6.00	< 6.30	A (Compounds with kinact(M^−1s^−1)>500000 are listed as “A”)	A (Compounds with kinact(M^−1s^−1)>500000 are listed as “A”)	A (Compounds with kinact(M^−1s^−1)>500000 are listed as “A”)
CC[C@@H](C(=O)N[C@@H](CC(=O)O)C(=O)COc1c(F)c(F)cc(F)c1F)n1ccc2ccc(Cl)cc2c1=O [Compound 10, (S,S)-3-[2-(7-chloro-1-oxo-1H-isoquinolin-2-yl)-butyrylamino]-4-oxo-5-(2,3,5,6-tetrafluoro-phenoxy)-pentanoic acid]	5.00 to 6.00	> 7.00	A (Compounds with kinact(M^−1s^−1)>500000 are listed as “A”)	C (Compounds with kinact(M^−1s^−1)<100000 are listed as “C”)	A (Compounds with kinact(M^−1s^−1)>500000 are listed as “A”)
CC[C@@H](C(=O)N[C@@H](CC(=O)O)C(=O)COc1c(F)ccc(F)c1F)n1cnc2ccccc2c1=O [Compound 8, (S,S)-4-Oxo-3-[2-(4-oxo-4H-quinazolin-3-yl)-butyrylamino]-5-(2,5,6-trifluoro-phenoxy)-pentanoic acid]	5.00 to 6.00	6.30 to 7.00	B (Compounds with kinact(M^−1s^−1) between 100000 and 500000 are listed as “B”)	C (Compounds with kinact(M^−1s^−1)<100000 are listed as “C”)	B (Compounds with kinact(M^−1s^−1) between 100000 and 500000 are listed as “B”)

Continued, in another order:

pIC50 [1]	Compound	pIC50 (rat cortical neurons)	kinact Caspase-1 [2]	kinact Caspase-8 [3]	kinact Caspase-3 [4]
5.00 to 6.00	CC[C@@H](C(=O)NC(CC(=O)O)C(=O)CF)n1cnc2ccc(Oc3ccccc3Cl)cc2c1=O (stereo partly drawn) [Compound 12, 3-[(2S)-2-[6-(2-Chloro-phenoxy)-4-oxo-4H-quinazolin-3-yl)-butyrylamino]-5-fluoro-4-oxo-pentanoic acid]	< 6.30	A (Compounds with kinact(M^−1s^−1)>500000 are listed as “A”)	A (Compounds with kinact(M^−1s^−1)>500000 are listed as “A”)	A (Compounds with kinact(M^−1s^−1)>500000 are listed as “A”)
> 6.00	CCCSc1ccc2ncn([C@@H](CC)C(=O)NC(CC(=O)O)C(=O)CF)c(=O)c2c1 (stereo partly drawn) [Compound 22, 5-Fluoro-4-oxo-3-[(2S)-2-(4-oxo-6-propylsulfanyl-4H-quinazolin-3-yl)-butyrylamino]-pentanoic acid]	< 6.30	A (Compounds with kinact(M^−1s^−1)>500000 are listed as “A”)	A (Compounds with kinact(M^−1s^−1)>500000 are listed as “A”)	A (Compounds with kinact(M^−1s^−1)>500000 are listed as “A”)
< 5.00	CC[C@@H](C(=O)N[C@@H](CC(=O)O)C(=O)COc1c(F)c(F)cc(F)c1F)n1ccc2cc(Cl)c(Cl)cc2c1=O [Compound 11, (S,S)-3-[2-(6,7-dichloro-1-oxo-1H-isoquinolin-2-yl)-butyrylamino]-4-oxo-5-(2,3,5,6-tetrafluoro-phenoxy)-pentanoic acid]	6.30 to 7.00	A (Compounds with kinact(M^−1s^−1)>500000 are listed as “A”)	C (Compounds with kinact(M^−1s^−1)<100000 are listed as “C”)	A (Compounds with kinact(M^−1s^−1)>500000 are listed as “A”)
